Results reported in paper PMC6270001, “Synthesis and Antiviral Activity of N-Phenylbenzamide Derivatives, a Novel Class of Enterovirus 71 Inhibitors” (Molecules, 2013).

Assays:
[1] = test system: EV 71 strain SZ-98 (genotype C4); test: Anti EV 71 activity assay (CPE, Reed & Muench) in Vero cells, strain SZ-98; type: cell-based, Enterovirus 71; settings: for IC50: EV 71 strain SZ-98, Vero cells, 100 TCID50, CPE, average ± SD, n=3; for SI SZ-98: selectivity index TC50/IC50, strain SZ-98, "-" stands for no antiviral selectivity
Experimental: (§1) The EV 71 was divided into three genotypes A, B and C based on nucleotide sequence comparisons, and genotypes B and C were subdivided into B1-B5 and C1-C5 [6, 10]. Genotype C is the most common genotype found in mainland China, especially the C4 subgenotype. Consequently, the intermediate compounds 1a, 1c and 1e, and the final products 2a–c, 3a–g, and 5a–f were evaluated for their anti-EV 71 activity in Vero cells against genotypes C4 (strains SZ-98 and JS-52-3), C2 (strain H) and A (strain BrCr). […] The IC50 values were calculated by the Reed and Muench method, and the cytotoxicity was monitored by the CPE method.
(§2) Vero cells were purchased from the American Type Culture Collection and cultured in Minimum Essential Medium (MEM) supplemented with 10% Fetal Bovine Serum (FBS) and antibiotics (100 U/mL penicillin G, 100 μg/mL streptomycin). Enterovirus 71 (EV 71) strain SZ-98 was kindly provided by Dr. Qi Jin, Institute of Pathogen Biology, Chinese Academy of Medical Science and Peking Union Medical School. Enterovirus 71 (EV 71) strain BrCr (VR-1775) was purchased from the American Type Culture Collection. Enterovirus 71 (EV 71) strain JS-52-3 was kindly provided by Dr. Xiang-zhong Ye, Beijing Wantai Biological Pharmacy Enterprise Co., Ltd. All Enterovirus 71 strains were propagated in Vero cells.
(§3) All compounds were dissolved in DMSO at 20 mg/mL as a stock solution and further diluted in culture medium prior to use. The initial concentration in all cytotoxicity assay was 200 µg/mL, and inhibition assay for anti-EV71 experiments was from maximum non-toxic concentration, and proceeded serially 3-fold dilution with culture medium. All cytotoxicity and activity assay for each compound was repeated for three times, and the data was indicated as average ± SD.
(§4) Confluent Vero cells grown in 96-well microplates were infected respectively with 100 median tissue culture infective dose (TCID50) EV 71. After 1 h adsorption at 37 °C, the monolayers were washed by PBS and incubated at 37 °C in the maintenance medium with or without different concentrations of test compounds.

[2] = test system: EV 71 strain H (genotype C2); test: Anti EV 71 activity assay (CPE, Reed & Muench) in Vero cells, strain H; type: cell-based, Enterovirus 71; settings: for IC50: EV 71 strain H (C2 genotype), Vero cells, 100 TCID50, CPE, average ± SD, n=3; for SI H: selectivity index TC50/IC50, strain H, "-" stands for no antiviral selectivity
Experimental: as §1, §2, §3, §4

[3] = test system: EV 71 strain BrCr (genotype A); test: Anti EV 71 activity assay (CPE, Reed & Muench) in Vero cells, strain BrCr; type: cell-based, Enterovirus 71; settings: for IC50: Enterovirus A, Vero, EV 71 strain BrCr, Vero cells, 100 TCID50, CPE, average ± SD, n=3; for SI BrCr: selectivity index TC50/IC50, strain BrCr, "-" stands for no antiviral selectivity
Experimental: as §1, §2, §3, §4

[4] = test system: EV 71 strain JS-52-3 (genotype C4); test: Anti EV 71 activity assay (CPE, Reed & Muench) in Vero cells, strain JS-52-3; type: cell-based, Enterovirus 71; settings: for IC50: EV 71 strain JS-52-3, Vero cells, 100 TCID50, CPE, average ± SD, n=3; for SI JS-52-3: selectivity index TC50/IC50, strain JS-52-3, "-" stands for no antiviral selectivity
Experimental: as §1, §2, §3, §4

Vero cells = test: Cytotoxicity determination in Vero cells monitored by cytopathic effect (CPE); type: cell-based; settings: 48 h, Reed & Muench, concentration that inhibits 50% cellular growth, average ± SD, n=3
Experimental: as §2, with “Enterovirus 71 (EV 71) strain BrCr (VR-1775) was purchased from the American Type Culture Collection.” left out
as §3
The cytotoxicity of compounds in the presence of Vero cells was monitored by cytopathic effect (CPE). Vero cells (2.5 × 10^4/well) were plated into a 96-well plate. A total of 24 h later, the monolayer cells were incubated in the presence of various concentrations of test compounds. […] The median toxic concentration (TC50) was calculated by Reed & Muench analyses.

[5] = test system: EV 71 strains SZ-98, JS-52-3, H, BrCr; test: Anti EV 71 activity assay in Vero cells, summary over the four strains tested; type: cell-based, Enterovirus 71; settings: TC50/IC50, range over the EV 71 strains tested
Experimental: as §1, §2, §3, §4

Row | IC50 ([1]; Enterovirus A, Vero) [µM] | IC50 ([2]; Enterovirus A, Vero) [µM] | IC50 [3] [µM] | IC50 ([4]; Enterovirus A, Vero) [µM] | melting point [°C] | IC50 [2] [µM] | IC50 [4] [µM] | Structure (SMILES) | SI H [2] | SI BrCr [3] | SI JS-52-3 [4] | TC50 (Vero cells) [µM] | selectivity index (SI) values (range over strains) [5] | SI SZ-98 [1] | IC50 [1] [µM]
1 | 350 ± 24 | 190 ± 14 | 160 ± 12 | 160 ± 7.9 |  |  |  | COc1ccc(C(=O)Nc2ccccc2)cc1N [Compound 1a] | 4.3 | 5.2 | 5.2 | >820 |  |  | 
2 | ~15 | 34 ± 3.6 | 56 ± 4.2 | 46 ± 5.7 | 152 to 154 |  |  | COc1ccc(C(=O)Nc2ccc(Cl)cc2)cc1N [Compound 1c, 3-Amino-N-(4-chlorophenyl)-4-methoxybenzamide] | 16 | 10 | 12 | 520 ± 29 | 10–36 | 36 | 
3 | 12 ± 1.1 | 5.7 ± 0.8 | 9.1 ± 1.4 | 9.8 ± 0.4 | 190 to 192 |  |  | COc1ccc(C(=O)Nc2ccc(Br)cc2)cc1N [Compound 1e, 3-Amino-N-(4-bromophenyl)-4-methoxybenzamide] | 110 | 68 | 64 | 620 ± 0.0 | 51–110 | 51 | 
4 | > 630 | 18 ± 1.2 | > 630 | 160 ± 5.7 |  |  |  | COc1ccc(C(=O)Nc2ccccc2)cc1NC(=O)C(C)F (stereo not drawn) [Compound 2a] | >35 |  | >3.9 |  |  |  | 
5 | 110 ± 12 | 41 ± 2.9 | 90 ± 9.5 | 34 ± 2.8 | 142 to 143 |  |  | COc1cc(C(=O)Nc2ccccc2)ccc1NC(=O)C(C)F (stereo not drawn) [Compound 2c, 4-(2-Fluoropropanamido)-3-methoxy-N-phenylbenzamide] | >16 | >7.0 |  | >630 |  | >5.8 | 
6 | > 260 | 260 | 180 ± 14 | 260 | 170 to 172 |  |  | CNc1cc(C(=O)Nc2ccccc2)ccc1OC [Compound 3a, 4-Methoxy-3-methylamino-N-phenylbenzamide] | 3.0 | 4.3 | 3.0 | 780 ± 0.0 |  |  | 
7 | 73 ± 8.6 | 31 ± 4.3 | 50 ± 3.8 | 42 ± 3.1 | 160 to 162 |  |  | COc1ccc(C(=O)Nc2ccc(Cl)cc2)cc1N(C)C [Compound 3b, N-(4-Chlorophenyl)-3-dimethylamino-4-methoxybenzamide] | 16 | 10 | 12 | 510 ± 38 |  | 7.0 | 
8 | 64 | 37 ± 1.2 | 44 ± 1 | 37 ± 1.9 | 147 to 148 |  |  | CNc1cc(C(=O)Nc2cc(OC)c(OC)c(OC)c2)ccc1OC [Compound 3c, 4-Methoxy-3-methylamino-N-(3,4,5-trimethoxyphenyl)benzamide] | 7.5 | 6.2 | 7.5 | 280 ± 5.9 |  | 4.3 | 
9 | 320 ± 32 | 190 | 190 | > 560 | 120 to 122 |  |  | COc1ccc(C(=O)Nc2cc(OC)c(OC)c(OC)c2)cc1N(C)C [Compound 3d, 3-Dimethylamino-4-methoxy-N-(3,4,5-trimethoxyphenyl)benzamide] | >3.0 | >3.0 |  | >560 |  | >1.7 | 
10 | > 78 | ~15 | 45 | 34 ± 4.6 | 121 to 123 | 20 ± 1.2 |  | CCCNc1cc(C(=O)Nc2ccccc2)ccc1OC [Compound 3e, 4-Methoxy-N-phenyl-3-(propylamino)benzamide] | 20 | 9.0 | 12 | 410 ± 22 |  |  | 
11 | > 70 | > 70 | > 70 | > 70 | 168 to 171 |  |  | CCCNc1cc(C(=O)Nc2ccc(Cl)cc2)ccc1OC [Compound 3f, N-(4-Chlorophenyl)-4-methoxy-3-propylaminobenzamide] |  |  |  | 120 |  |  | 
12 | > 75 | 96 ± 10 | 45 ± 10 | 58 ± 4.9 |  |  |  | CCC(=O)Nc1cc(C(=O)Nc2ccccc2)ccc1OC [Compound 5a] | >7.0 |  | >12 | >670 |  |  | 
13 | 38 ± 2.9 | 22 ± 2.9 | > 67 | 39 ± 1.9 | 130 to 132 |  |  | CCC(=O)Nc1cc(C(=O)Nc2ccc(Cl)cc2)ccc1OC [Compound 5b, N-(4-Chlorophenyl)-4-methoxy-3-propionamidobenzamide] | >27 |  | >16 | >600 |  | > 16 | 
14 | ~15 | ~15 | 34 | ~15 |  | 8.4 ± 1.2 | 20 ± 3.1 | CCC(=O)Nc1cc(C(=O)Nc2ccc(Br)cc2)ccc1OC [Compound 5c] | 63 | 16 | 27 | 530 ± 0.0 | 16–63 | 47 | 11 ± 0.8
15 | 190 ± 12 | 65 | 53 ± 2.4 | 44 ± 3.7 | 139 to 141 |  |  | CCC(=O)Oc1cc(C(=O)N(C)c2ccc(Cl)cc2)ccc1OC [Compound 5d, N-(4-Chlorophenyl)-N-methyl-4-methoxy-3-propionyloxybenzamide] | 4.3 | 5.2 | 6.2 | 280 ± 21 |  | 1.4 | 

Row | Structure (SMILES) | IC50 ([1]; Enterovirus A, Vero) [µM] | IC50 ([2]; Enterovirus A, Vero) [µM] | IC50 [3] [µM] | IC50 ([4]; Enterovirus A, Vero) [µM] | melting point [°C] | IC50 [2] [µM] | IC50 [4] [µM] | SI H [2] | SI BrCr [3] | SI JS-52-3 [4] | TC50 (Vero cells) [µM] | selectivity index (SI) values (range over strains) [5] | SI SZ-98 [1] | IC50 [1] [µM]
16 | COc1ccc(C(=O)Nc2ccc(Cl)cc2)cc1OC(C)=O [Compound 5e, N-(4-Chlorophenyl)-4-methoxy-3-acetoxybenzamide] | ~15 | 22 ± 4.7 | 32 ± 3.9 | 32 ± 3.6 | 177 to 179 |  |  | 21 | 15 | 14 | 470 ± 22 |  | 37 | 13 ± 2.4
17 | COc1ccc(C(=O)Nc2ccccc2)cc1OC(C)=O [Compound 5f, 4-Methoxy-N-phenyl-3-acetoxybenzamide] | 90 ± 11 | 47 ± 6.1 | 95 ± 9 | 98 ± 4.7 | 153 to 155 |  |  | 7.6 | 3.8 | 3.7 | 360 ± 39 |  | 4.0 | 
